Laboratory results reported in patent EP0029990A1, “Biphenylmethane derivative, methods for its production and pharmaceutical compositions containing it” (Byk Gulden Lomberg Chemische Fabrik GmbH, priority 1979, dated 1981).

Assays:
[1] = Acute toxicity (LD50), intravenous administration, mouse; settings: in vivo
Excerpt: (§1) Ihre Toxizität ist geringer als die des aus einem Gemisch von Kondensationsprodukten aus m-Kresolsulfonsäuren und Formaldehyd bestehenden Handelsprodukts. In der nachstehenden Tabelle sind die bei intravenöser Verabreichung an Maus und Ratte ermittelten LDSo-Werte des Dinatriumsalzes der 2,2'-Dihydroxy-5,5'-methylendi-(p-toluolsulfonsäure) (A) und des mit Natriumhydroxid neutralisierten Handelsprodukts (B) aufgeführt.

[2] = Acute toxicity (LD50), intravenous administration, rat; settings: in vivo
Excerpt: as §1

`Cc1cc(O)c(S(=O)(=O)O)cc1Cc1cc(S(=O)(=O)O)c(O)cc1C` [A, Dinatrium-2,2'-dihydroxy-5,5'-methylendi-(p-toluolsulfonat)-monohydrat] showed an LD50 ([1]; Maus ♀) of 1050 mg/kg, an LD50 ([1]; Maus ♂) of 1100 mg/kg and an LD50 ([2]; Ratte ♀) of 990 mg/kg. The LD50 ([2]; Ratte ♂) was 930 mg/kg.
